According to the supplement of paper PMC10702517:
± gives the standard deviation.

Key:
[1] = chemical recovery from spiked human plasma; higher = better extraction; settings: pooled human plasma
[2] = chemical recovery into PDMS from spiked human plasma; higher = better extraction; settings: pooled human plasma, extraction method: PES with PDMS
[3] = chemical recovery by SPE of plasma after PDMS sampling; higher = better extraction; settings: pooled human plasma, extraction method: HLB SPE of plasma after PES
[4] = extraction method: PES+SPE (3 d PDMS equilibration then HLB SPE)
[5] = extraction method: SPE only (HLB 96-well)
[6] = extraction method: SPE only (HLB 96-well), PES comparison experiment
[7] = extraction method: solvent precipitation (ACN + hexane)
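For chemical recovery by SPE of plasma after PDMS sampling in this document: over 400 spiked chemicals quantified by LC-HRMS or GC-HRMS via internal standard calibration, recovery relative to spike mix added to unspiked plasma extract to correct matrix effects.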

SMILES | chemical recovery [1, 4] [%] | chemical recovery [1, 5] [%] | chemical recovery [1, 6] [%] | chemical recovery [1, 7] [%] | chemical recovery into PDMS ([2]; equilibration time (d): 1) [%] | chemical recovery into PDMS ([2]; equilibration time (d): 3) [%] | chemical recovery into PDMS ([2]; equilibration time (d): 6) [%] | chemical recovery by SPE of plasma ([3]; equilibration time (d): 1) [%] | chemical recovery by SPE of plasma ([3]; equilibration time (d): 3) [%] | chemical recovery by SPE of plasma ([3]; equilibration time (d): 6) [%]
CC/C(=N\OC/C=C/Cl)C1=C(O)CC(C2CCOCC2)CC1=O (centres undefined) [Tepraloxydim] | 45.7 ± 5 | 40.5 ± 2.5 | 51.8 ± 3 | 73.8 ± 3.1 | 0.0964 ± 0.084 | 0.473 ± 0.3 | 0.369 ± 0.063 | 47.5 ± 6.9 | 48.3 ± 2.9 | 41.9 ± 3.2
O=S(=O)(O)NC1CCCCC1 [Cyclamate] | 5.77 ± 0.89 | 7.88 ± 2.3 |  | 71.8 ± 4.1 |  | 0.0113 ± 0.022 | 0.00679 ± 0.0059 | 7.95 ± 6.1 | 5.41 ± 0.92 | 8.35 ± 3.4
O=C1Nc2ccc(Cl)cc2C(c2ccccc2)=NC1O (centres undefined) [Oxazepam] | 41.3 ± 2.3 | 38 ± 3.2 | 46.6 ± 6 | 73.9 ± 3.5 | 1.81 ± 0.18 | 3.65 ± 0.36 | 3.9 ± 0.52 | 29.1 ± 4 | 30.4 ± 2.4 | 27.7 ± 1.9
ClC1=C(Cl)[C@]2(Cl)[C@@H]3[C@@H]4C[C@@H]([C@H]5O[C@@H]45)[C@@H]3[C@@]1(Cl)C2(Cl)Cl [Dieldrin] |  | 0.809 ± 0.21 | 8.32 ± 1.5 | 22.5 ± 1.4 |  |  | 97 ± 29 | 0.594 ± 1 |  | 
CN/C(=N\[N+](=O)[O-])NCc1cnc(Cl)s1 [Clothianidin] | 54 ± 1.1 | 55.1 ± 3.7 | 50.9 ± 5.5 | 75.8 ± 4.7 | 0.813 ± 0.031 | 1.39 ± 0.29 | 1.64 ± 0.42 | 59.2 ± 6.8 | 62.2 ± 5.3 | 57 ± 2.6
C#CC(C)(C)NC(=O)c1cc(Cl)cc(Cl)c1 [Propyzamide] | 64.9 ± 12 | 65 ± 3.2 | 48.1 ± 8.4 | 64.8 ± 3.9 | 34.8 ± 1.4 | 38.5 ± 1.1 | 39.4 ± 0.71 | 5.12 ± 0.61 | 7.16 ± 0.99 | 4.71 ± 0.68
Fc1ccc([C@]2(Cn3cncn3)O[C@H]2c2ccccc2Cl)cc1 (racemic) [Epoxiconazole] |  |  | 47.4 ± 6.8 | 73.6 ± 3 | 43.7 ± 1.7 | 48.1 ± 4.1 | 46.5 ± 5.9 | 0.968 ± 0.044 | 0.628 ± 0.21 | 0.285 ± 0.018
N#C/N=C1\SCCN1Cc1ccc(Cl)nc1 [Thiacloprid] | 55.5 ± 5.8 | 43.4 ± 3.5 | 55.7 ± 4.2 | 79.2 ± 2.9 | 18.1 ± 1.4 | 26.3 ± 4.2 | 29.8 ± 2.2 | 39.3 ± 6 | 33.4 ± 2.5 | 25.1 ± 4.8
Clc1cc(Cl)c(-c2c(Cl)ccc(Cl)c2Cl)cc1Cl [PCB149] | 56.86 ± 0.52 | 4.51 ± 1.5 | 10.4 ± 2 | 91 ± 6.8 |  | 103 ± 14 | 100 ± 8.1 | 3.35 ± 2.2 | 1.54 ± 0.15 | 1.29 ± 0.33
Nc1cnn(-c2ccccc2)c(=O)c1Cl [Chloridazon] | 44.6 ± 2.8 | 37.3 ± 3 | 54.9 ± 6.3 | 73 ± 2.7 | 4.58 ± 0.31 | 7.42 ± 1.7 | 8.14 ± 1.6 | 53.7 ± 8.1 | 57.1 ± 3.2 | 51.8 ± 4.5
Cc1cccc(C)c1N(Cn1cccn1)C(=O)C(=O)O [Metazachlor OA] |  |  | 50.4 ± 3.9 |  |  |  | 0.0244 ± 0.042 | 56.9 ± 8.4 | 63.4 ± 2.8 | 57.2 ± 4.4
N#Cc1nn(-c2c(Cl)cc(C(F)(F)F)cc2Cl)c(N)c1[S+]([O-])C(F)(F)F (centres undefined) [Fipronil] |  | 31.6 ± 8.2 | 64.5 ± 6.8 | 40.3 ± 3.4 | 25.5 ± 0.91 | 30.2 ± 2.3 | 29 ± 0.92 | 19 ± 4.9 | 21.5 ± 4.3 | 15.4 ± 2.5
CCc1cccc(C)c1N(C(=O)CS(=O)(=O)O)[C@@H](C)C(=O)O [Metolachlor-NOA 413-173] |  | 35.6 ± 3.7 | 22.7 ± 9.6 |  | 1.97 ± 4.4 | 9.48 ± 1.4 | 7.51 ± 7 |  | 27.8 ± 9.2 | 34.7 ± 5.3
CCC(CC)Nc1c([N+](=O)[O-])cc(C)c(C)c1[N+](=O)[O-] [Pendimethalin] |  | 39 ± 11 | 32.3 ± 7.6 | 87.6 ± 9.3 | 45.8 ± 3 | 46.4 ± 4.9 | 47.5 ± 6.3 |  | 0.1 ± 0.17 | 
CCOC(=O)c1ccc(N(C)C)cc1 [Ethyl 4-(dimethylamino)benzoate] | 25.6 ± 9.8 | 38.6 ± 1.8 | 37.5 ± 6.9 | 60.4 ± 5.1 | 26 ± 6 | 27.7 ± 4.9 | 29.8 ± 3.4 | 1.27 ± 0.14 | 1.79 ± 0.23 | 1.11 ± 0.13
O=C(O)CCC(=O)c1ccc(F)cc1 [4-Fluorobenzoylpropionic acid] | 47.1 ± 4.1 | 42.5 ± 2 | 59.7 ± 7.3 | 64 ± 7.2 |  | 0.0416 ± 0.072 | 0.0611 ± 0.11 | 60.4 ± 6.4 | 60.3 ± 4.6 | 56.6 ± 5.1
Cc1cc(=O)oc2cc(N)ccc12 [7-Amino-4-methylcoumarin] | 42.6 ± 3.4 |  | 53.5 ± 9.9 | 70.4 ± 2 | 12.65 ± 0.075 | 17.9 ± 2.4 | 18.9 ± 2.1 | 39.4 ± 4.9 | 34.9 ± 3.5 | 28.3 ± 3.2
CNC1=C(c2cccc(C(F)(F)F)c2)C(=O)C(c2ccccc2)O1 (centres undefined) [Flurtamone] | 32.8 ± 7.2 | 51.2 ± 0.52 | 49.3 ± 7.7 | 80.8 ± 2.4 | 1.85 ± 0.36 | 4.2 ± 2 | 5.43 ± 2.8 | 15.5 ± 2.1 | 11 ± 1.4 | 6.82 ± 0.47
C=CCC1=C(C)C(OC(=O)C2C(C=C(C)C)C2(C)C)CC1=O (centres undefined) [Allethrin] |  |  | 34.6 ± 6.6 |  | 36 ± 1.6 | 38.6 ± 3.5 | 37.9 ± 1.6 |  | 0.042 ± 0.073 | 
CC(Cc1ccc(C(C)(C)C)cc1)CN1CCCCC1 (centres undefined) [Fenpropidin] |  |  | 44.5 ± 7.7 | 105 ± 9.7 |  | 0.0302 ± 0.026 |  | 0.126 ± 0.086 | 0.0736 ± 0.023 | 0.0409 ± 0.011
COc1ccccc1Oc1c(NS(=O)(=O)c2ccc(C(C)(C)C)cc2)nc(-c2ncccn2)nc1OCCO [Bosentan] |  |  | 49.7 ± 11 | 75.4 ± 4.9 |  | 0.517 ± 0.46 | 0.935 ± 0.25 | 40.6 ± 4.4 | 48.7 ± 5.1 | 42.2 ± 6.5
